Reference: ChEMBL document CHEMBL1139571, “Synthesis and characterization of azole isoflavone inhibitors of aromatase” (Bioorg Med Chem Lett, 2005)
pIC50: −log10 of the molar value.

Molecular target: T1, Aromatase (Homo sapiens, UniProt P11511)
T1 sequence (P11511 whole entry): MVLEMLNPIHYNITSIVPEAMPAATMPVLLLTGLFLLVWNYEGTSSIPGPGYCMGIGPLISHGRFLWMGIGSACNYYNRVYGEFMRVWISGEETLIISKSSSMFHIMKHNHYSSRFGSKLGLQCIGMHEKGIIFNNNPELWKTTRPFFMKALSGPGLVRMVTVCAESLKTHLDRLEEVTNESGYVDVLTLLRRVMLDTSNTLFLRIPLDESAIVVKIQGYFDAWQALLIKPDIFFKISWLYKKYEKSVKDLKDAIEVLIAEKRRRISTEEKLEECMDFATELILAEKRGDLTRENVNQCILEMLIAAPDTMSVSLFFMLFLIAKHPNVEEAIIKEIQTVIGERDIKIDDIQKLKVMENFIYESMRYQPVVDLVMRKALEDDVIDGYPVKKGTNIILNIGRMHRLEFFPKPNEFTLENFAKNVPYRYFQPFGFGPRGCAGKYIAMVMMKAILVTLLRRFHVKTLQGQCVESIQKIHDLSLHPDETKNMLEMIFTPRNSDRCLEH
Description: Inhibitory concentration against human placental aromatase by deutirium oxide release

COc1ccc2c(=O)c(-c3ccccc3)c(Sc3nccn3C)oc2c1
pIC50: < 4.30
